Consider 1 molecule from patent US7381703B2, “Aplidine for multiple myeloma treatment” (Dana-Faber Cancer Institute, Inc., priority 2003, dated 2008).

Numbered stars: 1 amine (or outer) side, 2 acyl side, 3 side chain; on linkers, the order of the positions; unused ones are H or OH. Bridge positions count the residues as written; N and C are the ends. Square brackets hold non-standard residues; d marks the D form. Peptide text beside a SMILES is read from it. * marks the point of attachment. X1 = CC[C@H](C)[C@@H](N[*:1])[C@@H](O)CC(=O)O[C@H](C(=O)[C@H](C)C(=O)[*:2])C(C)C; NMeY = CN[C@@H](Cc1ccc(O)cc1)C(=O)O; dNMeL = CN[C@H](CC(C)C)C(=O)O; Pyruvoyl = CC(=O)C(=O)*

Series [1] concerns primary MM tumor cells co-cultured with BMSCs. Nature of the series: Co-culture of MM cells with bone marrow stromal cells, flow cytometry of viable CD138+ cells. Type of series: cell-based, human. The note with it: 48 hours, flow-cytometric determination of cell death (FIG. 3). (Flow cytometry measures light scatter and fluorescence of single cells or particles in a stream.)
Procedure: We therefore investigated whether aplidine can also overcome the molecular sequelae of the interaction of BMSCs with MM cells and achieve anti-MM activity in this context. We thus performed in vitro co-culture assays of MM cells with BMSCs as previously described: BMSCs were grown on 24-well plates to confluency. […] Flow cytometric analysis was performed to detect the CD138+ population of viable MM cells and the effect of aplidine on MM cell viability was expressed as % of viable cell numbers in comparison to the respective vehicle-treated cultures.
The subject of series [2] is multiple myeloma line overexpressing Bcl-2. Nature of the series: XTT or MTS cell viability assay, Bcl-2 overexpressing MM line. It counts as cell-based. The note with it: cells in culture, XTT or MTS (FIG. 7). The procedure: Aplidine was tested against various established cells in culture.
For series [3], the system named is primary MM tumor cells. As to the kind of experiment: MTT survival assay, primary MM tumor cells. It counts as cell-based, human. The note with it: 10 primary tumor specimens from multi-drug resistant MM patients; 20 nM for 48 hrs (FIG. 2). As to the method: (§1) Cell survival was examined using the 3-(4,5-dimethylthiazol-2-yl)-2,5-diphenyltetrazolium bromide (MTT; Sigma Chemical, St Louis, Mo.) colorimetric assay, as previously described (Mitsiades C. S. et al. Blood. 2001, 98, 795-804; Mitsiades N. et al. Proc Natl Acad Sci USA. 2002, 99, 14374-14379; Mitsiades N. et al. Blood. 2003, 101, 2377-2380). Briefly, cells were plated in 48-well plates at 70% to 80% confluence in the presence of 2.5% fetal bovine serum (FBS) and in the presence of Aplidine at final concentration of 0-100 nM or DMSO vehicle control. At the end of each treatment, cells were incubated with 1 mg/mL MTT for 4 hours at 37° C.; a mixture of isopropanol and 1 N HCl (23:2, vol/vol) was then added under vigorous pipetting to dissolve the formazan crystals. Dye absorbance (A) in viable cells was measured at 570 nm, with 630 nm as a reference wavelength. Cell viability was estimated as a percentage of the value of untreated controls. All experiments were repeated at least 3 times, and each experimental condition was repeated at least in triplicate wells in each experiment. Data reported are average values±SD of representative experiments. […]
(Tetrazolium dyes change colour on reduction, which living cells bring about.)

For series [4], the system named is NCI human in vitro panel cell lines. The note with it: cited from earlier work.
The next series has as its system BMSCs. Conditions: at the aplidine doses used in the co-culture.
In a further series the test system is bladder carcinoma. Conditions: bladder carcinoma in the hollow fiber; cited from earlier work.
Another series has as its system human MM cell lines. As to the kind of experiment: MTT colorimetric survival assay, panel of MM cell lines. Type of series: cell-based. The note with it: for the overwhelming majority of the MM cell lines of the panel (FIG. 1), read-out: IC50 doses. As to the method:
as §1

The subject of a further series is breast MX-1. Conditions: mice bearing human xenografted tumors; cited from earlier work.
Series [5] has as its system primary MM tumor cells. Nature of the series: MTT survival assay, combination with doxorubicin. Type of series: cell-based, human. Conditions: aplidine 2 nM with doxorubicin 10 ng/mL, primary MM tumor sample (FIG. 5).
The next series relates to colon CX-1. The note with it: mice bearing human xenografted tumors; cited from earlier work.
Series [6] deals with multiple myeloma lines resistant to dexamethasone (MM 1.R). The note with it: cells in culture, XTT or MTS (FIG. 6).
Procedure: The cells used were: • multiple myeloma cells (MM1.S) • multiple myeloma lines resistant to dexamethasone (MM 1.R) • a multiple myeloma line overexpressing Bcl-2
For established cell lines, cells were plated in 96 well plates and allowed to grow for 24 h prior to addition of drugs. Cells were incubated with drug for indicated times and cell viability was measured by the XTT or MTS assay using an automated plate reader.
Series [7] has as its system MM-1S human MM cells stably transfected with Bcl-2. Nature of the series: MTT survival assay, Bcl-2-transfected MM-1S cells. The note with it: Bcl-2-transfected MM-1S cells (FIG. 1). It counts as cell-based. As to the method:
as §1

The subject of series [8] is gastric, prostate and Burkitts lymphoma human xenografts. The note with it: subcutaneous implanted gastric; cited from earlier work.
Another series concerns B16 melanoma. Conditions: murine tumors such as B16 melanoma; cited from earlier work.
In another series the test system is VEGF secretion. As to the kind of experiment: Quantification of VEGF secretion by ELISA. Type of series: cell-based, human. Conditions: 20 nM. The source says:
MM cell adhesion to BMSCs induces increased secretion of angiogenic cytokines, such as vascular endothelial growth factor (VEGF), an event deemed of major significance for the recruitment of new blood vessels at the sites of MM cells in the BM milieu. […] The supernatants were collected and assayed for VEGF concentration by enzyme-linked immunosorbent assay (ELISA) using a commercially available kit (VEGF ELISA kit; R&D Systems), according to the instructions of the manufacturer.
For orientation: In an ELISA, binding on a coated surface is turned into a signal by an enzyme label.

In a further series the test system is colon tumor cells. The note with it: cited from earlier work.
Series [9] concerns non-small-cell lung tumor cells. The note with it: cited from earlier work.
The conditions of series [10]: phase I/II trials; cited from earlier work.
The conditions of series [11]: solubilised aplidine; cited from earlier work.
Series [12] deals with MM-1S human MM cells stably transfected with myristoylated Akt. Nature of the series: MTT survival assay, myrAkt-transfected MM-1S cells. It counts as cell-based. The note with it: myrAkt-transfected MM-1S cells (FIG. 1). The procedure: as §1

In general, IC50 refers to the point on the concentration scale where inhibition reaches its midpoint. As to `CC[C@H](C)[C@H]1NC(=O)[C@@H](NC(=O)[C@@H](CC(C)C)N(C)C(=O)[C@@H]2CCCN2C(=O)C(C)=O)[C@@H](C)OC(=O)[C@H](Cc2ccc(OC)cc2)N(C)C(=O)[C@@H]2CCCN2C(=O)[C@H](CC(C)C)NC(=O)[C@@H](C)C(=O)[C@H](C(C)C)OC(=O)C[C@@H]1O` [Aplidine, Dehydrodidemnin B] (Pyruvoyl-P[dNMeL]T[X1]LP[NMeY](Me); ester 3-C), the “effect of MM-BMSC interaction on in vitro anti-MM activity” value in series [1] was “did not significantly attenuate”. Also, the “growth of Bcl-2 overexpressing MM cells” value in [2] is listed as “inhibits growth”. Also, the “in vitro anti-MM activity” value in the series with primary MM tumor cells [3] was “consistent with the results obtained from the testing of our cell line panel”. Besides, the “selectivity in the NCI human in vitro panel” value in [4] was “selectivity for non-small-cell lung cancer (NSCLC), melanoma, ovarian and colorectal cancer cell lines”. In the series with BMSCs, the “survival of BMSCs” value is “did not significantly affect”. Further, the “in vivo antitumor activity” value (in the series with bladder carcinoma; in series [8]) was “in vivo antitumor activity” each time. Besides, the IC50 with human MM cell lines was ≤ 10 nM; with colon tumor cells, 0.45 nM; in series [9], 0.18 nM. Besides, the in vivo activity entry in the series on breast MX-1 is recorded as “confirm activity”; in the series with colon CX-1 it was “confirm activity”; with B16 melanoma, “in vivo activity”. In the series with primary MM tumor cells [5], the “responsiveness of MM cells to doxorubicin in combination with Aplidine” value is given as “increased responsiveness to doxorubicin”. Moreover, the “growth inhibition of dexamethasone resistant MM1.R cells compared with MM1.S” value in [6] is recorded as “as effectively as the parenteral line (MM1.S)”. Besides, the “sensitivity to aplidine vs. empty-vector transfected cells” value in [7] and in [12] was “did not have lower sensitivity” in each case. Moreover, the “VEGF secretion when MM cells are co-cultured with BMSCs” value in the series with VEGF secretion (12-hour treatment, co-culture (FIG. 4B)) was “counteract the increase in VEGF secretion”. In the series on VEGF secretion (12-hour treatment, primary MM tumor cells (FIGS. 4A and 4B)), the “secretion of VEGF by MM cells” value is on record as “suppress the secretion of VEGF”. Besides, in the series on VEGF secretion (12 hrs, BMSCs (FIG. 4B)), the “VEGF secretion by BMSCs” value is on record as “suppresses the VEGF secretion”. The dose-limiting toxicity result in series [10] is recorded as “muscular toxicity”. In addition, the myelosuppression entry in series [10] is listed as “remarkable lack of severe myelosuppression”. Moreover, the “degradation under heat and light stress testing conditions” value in series [11] is on record as “substantial degradation”.
